Experimental data published in BindingDB's records for doi:10.1021/acs.jmedchem.6b00596 (University of Connecticut Health Center, 2016).

Biological target: Ubiquitin carboxyl-terminal hydrolase 1/WD repeat-containing protein 48 (Homo sapiens, UniProt O94782+Q8TAF3)
Assay: Inhibition of human USP1/UAF1 complex using Ub-Rho as substrate by qHTS assay

Ubiquitin carboxyl-terminal hydrolase 1/WD repeat-containing protein 48, sequence (O94782 whole entry, looked up): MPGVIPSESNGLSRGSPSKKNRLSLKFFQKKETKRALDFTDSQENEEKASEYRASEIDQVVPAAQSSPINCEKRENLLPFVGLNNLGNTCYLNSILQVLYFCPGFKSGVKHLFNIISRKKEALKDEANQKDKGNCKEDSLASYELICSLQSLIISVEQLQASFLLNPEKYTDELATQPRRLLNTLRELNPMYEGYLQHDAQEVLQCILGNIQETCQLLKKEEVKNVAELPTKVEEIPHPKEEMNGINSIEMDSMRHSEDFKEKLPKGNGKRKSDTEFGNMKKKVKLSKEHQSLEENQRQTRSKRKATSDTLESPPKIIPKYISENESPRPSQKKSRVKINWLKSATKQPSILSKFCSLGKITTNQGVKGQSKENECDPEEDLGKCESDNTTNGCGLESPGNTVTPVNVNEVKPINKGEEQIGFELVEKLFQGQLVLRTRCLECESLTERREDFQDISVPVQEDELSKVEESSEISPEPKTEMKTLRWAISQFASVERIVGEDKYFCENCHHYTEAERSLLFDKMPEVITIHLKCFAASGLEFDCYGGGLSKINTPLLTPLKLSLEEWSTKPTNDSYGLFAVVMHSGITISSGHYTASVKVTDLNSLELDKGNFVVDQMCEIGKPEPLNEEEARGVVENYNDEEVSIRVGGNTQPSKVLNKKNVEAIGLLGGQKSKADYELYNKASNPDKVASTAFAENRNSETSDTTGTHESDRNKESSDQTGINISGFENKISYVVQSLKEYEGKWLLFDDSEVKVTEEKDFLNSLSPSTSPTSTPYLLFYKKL
Ubiquitin carboxyl-terminal hydrolase 1/WD repeat-containing protein 48, sequence (Q8TAF3 whole entry, looked up): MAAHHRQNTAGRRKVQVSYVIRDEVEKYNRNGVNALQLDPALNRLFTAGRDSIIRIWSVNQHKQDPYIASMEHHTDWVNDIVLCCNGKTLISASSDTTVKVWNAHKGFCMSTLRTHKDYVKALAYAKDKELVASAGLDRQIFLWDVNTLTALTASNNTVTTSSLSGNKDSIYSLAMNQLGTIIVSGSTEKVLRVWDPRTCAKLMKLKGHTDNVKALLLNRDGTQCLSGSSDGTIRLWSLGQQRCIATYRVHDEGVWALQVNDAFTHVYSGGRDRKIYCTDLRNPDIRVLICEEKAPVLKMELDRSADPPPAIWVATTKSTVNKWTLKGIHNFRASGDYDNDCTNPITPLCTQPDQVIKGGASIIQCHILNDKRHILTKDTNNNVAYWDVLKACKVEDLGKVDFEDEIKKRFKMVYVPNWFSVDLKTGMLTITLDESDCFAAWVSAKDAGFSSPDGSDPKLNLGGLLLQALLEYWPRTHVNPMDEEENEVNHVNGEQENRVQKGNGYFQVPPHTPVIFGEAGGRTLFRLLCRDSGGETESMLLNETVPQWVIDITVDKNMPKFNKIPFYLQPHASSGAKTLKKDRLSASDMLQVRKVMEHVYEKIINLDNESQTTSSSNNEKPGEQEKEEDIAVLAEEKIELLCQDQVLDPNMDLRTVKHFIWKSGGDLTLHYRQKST

- IC50: 7 µM
Structure (SMILES): OCCN1CCN(CC/C=C2/c3ccccc3Sc3ccc(C(F)(F)F)cc32)CC1 [Fluphenthixol]
